Legend:
Format in all cases: in vivo
[1] = system: windgrass (Apera spica-venti); assay: Test C postemergence: windgrass
How it was run: (§1)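 Response values are visual ratings, 0 (no effect) to 100 (complete control), made by comparison with untreated controls 13 to 15 days after postemergence treatment of greenhouse-grown potted plants that were 2 to 18 cm high at spraying.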

[2] = system: foxtail, green (green foxtail, Setaria viridis); assay: Test C pre-/postemergence: foxtail, green
How it was run: (§2)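 Visual injury scored 0–100 (100 = complete control) against untreated controls after 13–15 greenhouse days. Surfactant-containing solvent formulations applied either to soil after sowing (loam/sand) or over 1- to 4-leaf plants, 2–18 cm tall.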

[3] = system: cocklebur (common cocklebur, Xanthium strumarium); assay: Test C pre-/postemergence: cocklebur
How it was run: as §2

[4] = system: bromegrass, downy (downy bromegrass, Bromus tectorum); assay: Test C pre-/postemergence: bromegrass, downy
How it was run: as §2

[5] = system: canarygrass (Phalaris minor); assay: Test C postemergence: canarygrass
How it was run: as §1

[6] = system: goosegrass (Eleusine indica); assay: Test C pre-/postemergence: goosegrass
How it was run: as §2

[7] = system: common (oilseed) sunflower (Helianthus annuus); assay: Test C pre-/postemergence: sunflower; conditions: Preemergence
How it was run: as §2

[8] = system: barley (winter barley, Hordeum vulgare); assay: Test C postemergence: barley
How it was run: as §1

[9] = system: nightshade (eastern black nightshade, Solanum ptycanthum); assay: Test C pre-/postemergence: nightshade; conditions: Preemergence
How it was run: as §2

[10] = 31 g ai/ha, scale 0 to 100 (0 no effect, 100 complete control)
[11] = 62 g ai/ha, scale 0 to 100 (0 no effect, 100 complete control)
[12] = 125 g ai/ha, scale 0 to 100, 0 no effect, 100 complete control
[13] = Postemergence, 31 g ai/ha, scale 0 to 100 (0 no effect, 100 complete control)
[14] = Postemergence, 62 g ai/ha, scale 0 to 100 (0 no effect, 100 complete control)
[15] = Postemergence, 125 g ai/ha, scale 0 to 100, 0 no effect, 100 complete control
[16] = Postemergence, 250 g ai/ha, scale 0 to 100
[17] = Preemergence, 31 g ai/ha, scale of 0 to 100, 0 is no effect, 100 is complete control
[18] = Preemergence, 62 g ai/ha, scale of 0 to 100, 0 is no effect, 100 is complete control
[19] = Preemergence, 250 g ai/ha, scale 0 to 100, 0 no effect, 100 complete control
[20] = Preemergence, 125 g ai/ha, scale 0 to 100, 0 no effect, 100 complete control
[21] = 31 g ai/ha, scale of 0 to 100, 0 is no effect, 100 is complete control
[22] = 62 g ai/ha, scale of 0 to 100, 0 is no effect, 100 is complete control
[23] = 250 g ai/ha, scale 0 to 100, 0 no effect, 100 complete control
[24] = Postemergence, 250 g ai/ha, scale 0 to 100 (0 no effect, 100 complete control)
[25] = Preemergence, 31 g ai/ha, scale 0 (no effect) to 100 (complete control)
[26] = Preemergence, 62 g ai/ha, scale 0 to 100, 0 no effect, 100 complete control
[27] = 31 g ai/ha, scale 0 (no effect) to 100 (complete control)
[28] = 62 g ai/ha, scale 0 to 100, 0 no effect, 100 complete control

## COc1nn(-c2cccc(F)c2)nc1Cc1ccnc(C(F)(F)F)c1 [Compound 139]
[1]; [10]
  Plant response rating, Windgrass: 50
[1]; [11]
  Plant response rating, Windgrass: 70
[1]; [12]
  Plant response rating, Windgrass: 80
[2]; [13]
  Plant response rating, Foxtail, Green: 95
[2]; [14]
  Plant response rating, Foxtail, Green: 95
[2]; [15]
  Plant response rating, Foxtail, Green: 100
[2]; [16]
  Plant response rating, Foxtail, Green: 100
[2]; [17]
  Plant response rating, Foxtail, Green: 90
[2]; [18]
  Plant response rating, Foxtail, Green: 90
[2]; [19]
  Plant response rating, Foxtail, Green: 90
[3]; [18]
  Plant response rating, Cocklebur: 0
[3]; [20]
  Plant response rating, Cocklebur: 0
[3]; [19]
  Plant response rating, Cocklebur: 5
[4]; [13]
  Plant response rating, Bromegrass, Downy: 5
[4]; [14]
  Plant response rating, Bromegrass, Downy: 10
[4]; [15]
  Plant response rating, Bromegrass, Downy: 15
[4]; [16]
  Plant response rating, Bromegrass, Downy: 30
[4]; [17]
  Plant response rating, Bromegrass, Downy: 0
[4]; [18]
  Plant response rating, Bromegrass, Downy: 20
[4]; [19]
  Plant response rating, Bromegrass, Downy: 85
[5]; [10]
  Plant response rating, Canarygrass: 40
[5]; [11]
  Plant response rating, Canarygrass: 45
[5]; [12]
  Plant response rating, Canarygrass: 60
[5]; 250 g ai/ha, scale 0 to 100
  Plant response rating, Canarygrass: 80
[6]; [13]
  Plant response rating, Goosegrass: 15
[6]; [14]
  Plant response rating, Goosegrass: 40
[6]; [15]
  Plant response rating, Goosegrass: 60
[6]; [16]
  Plant response rating, Goosegrass: 80
[6]; [17]
  Plant response rating, Goosegrass: 98
[6]; [18]
  Plant response rating, Goosegrass: 100
[6]; [20]
  Plant response rating, Goosegrass: 100
[6]; [19]
  Plant response rating, Goosegrass: 100
[7]; [21]
  Plant response rating, Sunflower: 0
[7]; [22]
  Plant response rating, Sunflower: 0
[7]; [12]
  Plant response rating, Sunflower: 5
[7]; [23]
  Plant response rating, Sunflower: 10
[8]; [10]
  Plant response rating, Barley: 5
[8]; [11]
  Plant response rating, Barley: 10
[8]; [12]
  Plant response rating, Barley: 35
[8]; 250 g ai/ha, scale 0 to 100
  Plant response rating, Barley: 40
[9]; [22]
  Plant response rating, Nightshade: 75
[9]; [12]
  Plant response rating, Nightshade: 85
[9]; [23]
  Plant response rating, Nightshade: 98

## Cc1nn(-c2ccc(C(F)(F)F)c(F)c2)nc1Oc1ccnc(C(F)(F)F)c1 [Compound 148]
[1]; [10]
  Plant response rating, Windgrass: 60
[1]; [11]
  Plant response rating, Windgrass: 80
[1]; [12]
  Plant response rating, Windgrass: 98
[1]; 250 g ai/ha, scale 0 to 100
  Plant response rating, Windgrass: 100
[2]; [13]
  Plant response rating, Foxtail, Green: 80
[2]; [14]
  Plant response rating, Foxtail, Green: 98
[2]; [15]
  Plant response rating, Foxtail, Green: 100
[2]; [16]
  Plant response rating, Foxtail, Green: 100
[2]; [17]
  Plant response rating, Foxtail, Green: 95
[2]; [18]
  Plant response rating, Foxtail, Green: 95
[2]; [20]
  Plant response rating, Foxtail, Green: 95
[2]; [19]
  Plant response rating, Foxtail, Green: 95
[3]; [13]
  Plant response rating, Cocklebur: 85
[3]; [14]
  Plant response rating, Cocklebur: 98
[3]; [15]
  Plant response rating, Cocklebur: 98
[3]; [17]
  Plant response rating, Cocklebur: 10
[4]; [13]
  Plant response rating, Bromegrass, Downy: 45
[4]; [14]
  Plant response rating, Bromegrass, Downy: 55
[4]; [15]
  Plant response rating, Bromegrass, Downy: 60
[4]; [16]
  Plant response rating, Bromegrass, Downy: 65
[4]; [17]
  Plant response rating, Bromegrass, Downy: 5
[4]; [18]
  Plant response rating, Bromegrass, Downy: 40
[4]; [20]
  Plant response rating, Bromegrass, Downy: 50
[4]; [19]
  Plant response rating, Bromegrass, Downy: 80
[5]; [10]
  Plant response rating, Canarygrass: 40
[5]; [11]
  Plant response rating, Canarygrass: 60
[5]; [12]
  Plant response rating, Canarygrass: 95
[5]; 250 g ai/ha, scale 0 to 100
  Plant response rating, Canarygrass: 95
[6]; [14]
  Plant response rating, Goosegrass: 15
[6]; [15]
  Plant response rating, Goosegrass: 25
[6]; [16]
  Plant response rating, Goosegrass: 40
[6]; [17]
  Plant response rating, Goosegrass: 90
[6]; [18]
  Plant response rating, Goosegrass: 95
[6]; [20]
  Plant response rating, Goosegrass: 98
[6]; [19]
  Plant response rating, Goosegrass: 100
[7]; [21]
  Plant response rating, Sunflower: 0
[7]; [22]
  Plant response rating, Sunflower: 0
[7]; [12]
  Plant response rating, Sunflower: 10
[7]; [23]
  Plant response rating, Sunflower: 10
[8]; [10]
  Plant response rating, Barley: 35
[8]; [11]
  Plant response rating, Barley: 35
[8]; [12]
  Plant response rating, Barley: 40
[8]; 250 g ai/ha, scale 0 to 100
  Plant response rating, Barley: 45
[9]; [21]
  Plant response rating, Nightshade: 25
[9]; [22]
  Plant response rating, Nightshade: 60
[9]; [12]
  Plant response rating, Nightshade: 85
[9]; [23]
  Plant response rating, Nightshade: 85

## CCOc1nn(-c2ccc(F)cc2)nc1Cc1ccnc(C(F)(F)F)c1 [Compound 196, 4-[[5-ethoxy-2-(4-fluorophenyl)-2H-1,2,3-triazol-4-yl]methyl]-2-(trifluoromethyl)pyridine]
[1]; [10]
  Plant response rating, Windgrass: 80
[1]; [11]
  Plant response rating, Windgrass: 80
[1]; [12]
  Plant response rating, Windgrass: 95
[1]; 250 g ai/ha, scale 0 to 100 (0 no effect, 100 complete control)
  Plant response rating, Windgrass: 95
[2]; [13]
  Plant response rating, Foxtail, Green: 100
[2]; [14]
  Plant response rating, Foxtail, Green: 100
[2]; [15]
  Plant response rating, Foxtail, Green: 100
[2]; [24]
  Plant response rating, Foxtail, Green: 100
[2]; [25]
  Plant response rating, Foxtail, Green: 90
[2]; [26]
  Plant response rating, Foxtail, Green: 90
[2]; [20]
  Plant response rating, Foxtail, Green: 90
[2]; [19]
  Plant response rating, Foxtail, Green: 90
[3]; [13]
  Plant response rating, Cocklebur: 55
[3]; [14]
  Plant response rating, Cocklebur: 60
[3]; [15]
  Plant response rating, Cocklebur: 65
[3]; [16]
  Plant response rating, Cocklebur: 75
[3]; [25]
  Plant response rating, Cocklebur: 5
[3]; [20]
  Plant response rating, Cocklebur: 45
[3]; [19]
  Plant response rating, Cocklebur: 75
[4]; [13]
  Plant response rating, Bromegrass, Downy: 50
[4]; [14]
  Plant response rating, Bromegrass, Downy: 50
[4]; [15]
  Plant response rating, Bromegrass, Downy: 70
[4]; [16]
  Plant response rating, Bromegrass, Downy: 80
[4]; [25]
  Plant response rating, Bromegrass, Downy: 60
[4]; [26]
  Plant response rating, Bromegrass, Downy: 95
[4]; [20]
  Plant response rating, Bromegrass, Downy: 100
[4]; [19]
  Plant response rating, Bromegrass, Downy: 100
[5]; [10]
  Plant response rating, Canarygrass: 80
[5]; [11]
  Plant response rating, Canarygrass: 90
[5]; [12]
  Plant response rating, Canarygrass: 90
[5]; 250 g ai/ha, scale 0 to 100
  Plant response rating, Canarygrass: 90
[6]; [13]
  Plant response rating, Goosegrass: 75
[6]; [14]
  Plant response rating, Goosegrass: 75
[6]; [15]
  Plant response rating, Goosegrass: 80
[6]; [24]
  Plant response rating, Goosegrass: 85
[6]; [25]
  Plant response rating, Goosegrass: 100
[6]; [26]
  Plant response rating, Goosegrass: 100
[6]; [20]
  Plant response rating, Goosegrass: 100
[6]; [19]
  Plant response rating, Goosegrass: 100
[7]; [27]
  Plant response rating, Sunflower: 5
[7]; [28]
  Plant response rating, Sunflower: 20
[7]; [12]
  Plant response rating, Sunflower: 30
[7]; [23]
  Plant response rating, Sunflower: 40
[8]; [10]
  Plant response rating, Barley: 30
[8]; [11]
  Plant response rating, Barley: 40
[8]; [12]
  Plant response rating, Barley: 45
[8]; 250 g ai/ha, scale 0 to 100
  Plant response rating, Barley: 50
[9]; [27]
  Plant response rating, Nightshade: 100
[9]; [28]
  Plant response rating, Nightshade: 100
[9]; [12]
  Plant response rating, Nightshade: 100
[9]; [23]
  Plant response rating, Nightshade: 100
